Measurements published in ChEMBL document CHEMBL4265910, “(E)-N-Aryl-2-oxo-2-(3,4,5-trimethoxyphenyl)acetohydrazonoyl cyanides as tubulin polymerization inhibitors: Structure-based bioisosterism design, synthesis, biological evaluation, molecular docking and in silico ADME prediction” (Bioorg Med Chem Lett, 2018).
Each block holds one compound with its values, some of them ahead of it.

Key:
[1] = tested on: MCF7; assay: Antiproliferative activity against human MCF7 cells after 72 hrs by MTT assay; format: functional, cell-based; settings: MCF7, 72 h
[2] = tested on: HepG2; assay: Antiproliferative activity against human HepG2 cells after 72 hrs by MTT assay; format: functional, cell-based; settings: HepG2, 72 h
[3] = tested on: MDA-MB-231; assay: Antiproliferative activity against human MDA-MB-231 cells after 72 hrs by MTT assay; format: functional, cell-based; settings: MDA-MB-231, 72 h
[4] = Antiproliferative activity against human HCT8/T cells after 72 hrs by MTT assay; format: functional, cell-based; settings: HCT-8, 72 h
[5] = tested on: DU-145; assay: Antiproliferative activity against human DU145 cells after 72 hrs by MTT assay; format: functional, cell-based; settings: DU-145, 72 h
[6] = tested on: HCT-116; assay: Antiproliferative activity against human HCT116 cells after 72 hrs by MTT assay; format: functional, cell-based; settings: HCT-116, 72 h
[7] = tested on: B16-F10; assay: Antiproliferative activity against mouse B16F10 cells after 72 hrs by MTT assay; format: functional, cell-based; settings: B16-F10, 72 h
[8] = tested on: HeLa; assay: Antiproliferative activity against human HeLa cells after 72 hrs by MTT assay; format: functional, cell-based
[9] = tested on: HepG2; assay: Cell cycle arrest in human HepG2 cells assessed as accumulation at S phase at 0.25 uM after 24 hrs by RNase A/propidium iodide staining-based flow cytometric analysis (reference value: 28.30%); format: functional
[10] = organism: Sus scrofa; assay: (§1) Inhibition of tubulin polymerization in porcine brain assessed as disruption of tubulin assembly by spectrophotometric analysis
[11] = as §1; set-up: species or system Sus scrofa
[12] = tested on: HepG2; assay: Cell cycle arrest in human HepG2 cells assessed as accumulation at S phase at 0.5 uM after 24 hrs by RNase A/propidium iodide staining-based flow cytometric analysis (reference value: 28.30%); format: functional
[13] = tested on: HepG2; assay: Cell cycle arrest in human HepG2 cells assessed as accumulation at G1 phase at 0.5 uM after 24 hrs by RNase A/propidium iodide staining-based flow cytometric analysis (reference value: 50.61%); format: functional
[14] = tested on: HepG2; assay: Cell cycle arrest in human HepG2 cells assessed as accumulation at G1 phase at 0.25 uM after 24 hrs by RNase A/propidium iodide staining-based flow cytometric analysis (reference value: 50.61%); format: functional
[15] = tested on: HepG2; assay: Cell cycle arrest in human HepG2 cells assessed as accumulation at G2/M phase at 0.25 uM after 24 hrs by RNase A/propidium iodide staining-based flow cytometric analysis (reference value: 21.09%); format: functional
[16] = tested on: HepG2; assay: Cell cycle arrest in human HepG2 cells assessed as accumulation at G2/M phase after 24 hrs by RNase A/propidium iodide staining-based flow cytometric analysis; format: functional
[17] = tested on: HepG2; assay: Cell cycle arrest in human HepG2 cells assessed as accumulation at G2/M phase at 0.5 uM after 24 hrs by RNase A/propidium iodide staining-based flow cytometric analysis (reference value: 21.09%); format: functional
[18] = tested on: HT-29; assay: Antiproliferative activity against human HT-29 cells; format: functional, cell-based
[19] = tested on: CHL-1; assay: Antiproliferative activity against human CHL-1 cells; format: functional, cell-based
[20] = tested on: SK-OV-3; assay: Antiproliferative activity against human SKOV3 cells; format: functional, cell-based
[21] = tested on: A2780S; assay: Antiproliferative activity against human A2780S cells; format: functional, cell-based
[22] = tested on: MCF7; assay: Antiproliferative activity against human MCF7 cells; format: functional, cell-based
[23] = tested on: HepG2; assay: Antiproliferative activity against human HepG2 cells; format: functional, cell-based
[24] = tested on: A549; assay: Antiproliferative activity against human A549 cells; format: functional, cell-based

SMILES: COc1cc(C(=O)/C(C#N)=N/Nc2cccc(C)c2)cc(OC)c1OC
- IC50 [1]: 5890 nM
- IC50 [2]: 6110 nM

SMILES: COc1cc(C(=O)/C(C#N)=N/Nc2ccc(F)cc2)cc(OC)c1OC
- IC50 [1]: 9840 nM
- IC50 [2]: 9710 nM

SMILES: CCOc1ccccc1N/N=C(\C#N)C(=O)c1cc(OC)c(OC)c(OC)c1
- IC50 [1]: > 10000 nM
- IC50 [2]: > 10000 nM

SMILES: COc1cc(C(=O)/C(C#N)=N/Nc2ccc(Cl)cc2Cl)cc(OC)c1OC
- IC50 [1]: > 10000 nM
- IC50 [2]: > 10000 nM

SMILES: COc1cc(C(=O)/C(C#N)=N/Nc2ccc(C)cc2)cc(OC)c1OC
- IC50 [3]: 2240 nM
- IC50 [1]: 430 nM
- IC50 [2]: 610 nM
- IC50 [4]: 7640 nM
- IC50 [5]: 98 nM
- IC50 [6]: 870 nM
- IC50 [7]: 2230 nM
- IC50 [8]: 310 nM

SMILES: COc1cc(C(=O)/C(C#N)=N/Nc2ccc(C(F)(F)F)cc2)cc(OC)c1OC
- IC50 [1]: 3020 nM
- IC50 [2]: 2680 nM

SMILES: COc1cc2c(c(OC)c1OC)-c1ccc(OC)c(=O)cc1[C@@H](NC(C)=O)CC2 [COLCHICINE]
- IC50 [3]: 77.6 nM
- IC50 [4]: 227 nM
- IC50 [5]: 3.45 nM
- IC50 [6]: 26.2 nM
- IC50 [7]: 44.2 nM
- IC50 [8]: 8.89 nM

SMILES: COc1ccc(N/C=C(\C#N)C(=O)c2cc(OC)c(OC)c(OC)c2)cc1
- IC50 [18]: 1280 nM
- IC50 [19]: 1220 nM
- IC50 [20]: 1270 nM
- IC50 [1]: 1930 nM
- IC50 [2]: 1380 nM
- IC50 [21]: 1880 nM
- IC50 [22]: 1840 nM
- IC50 [23]: 1200 nM
- IC50 [24]: 2090 nM

SMILES: COc1cc(C(=O)/C(C#N)=N/Nc2ccccc2F)cc(OC)c1OC
- IC50 [1]: 1690 nM
- IC50 [2]: 2100 nM

SMILES: COc1cc(C(=O)/C(C#N)=N/Nc2ccccc2)cc(OC)c1OC
- IC50 [1]: 6380 nM
- IC50 [2]: 5190 nM

Further lines, with some results ahead:

- IC50 [1]: > 10000 nM
- IC50 [2]: > 10000 nM
SMILES: COc1cc(N/N=C(\C#N)C(=O)c2cc(OC)c(OC)c(OC)c2)cc(OC)c1OC

- IC50 [1]: 7010 nM
- IC50 [2]: 6620 nM
SMILES: CCOc1ccc(N/N=C(\C#N)C(=O)c2cc(OC)c(OC)c(OC)c2)cc1

- IC50 [1]: 8820 nM
- IC50 [2]: 6460 nM
SMILES: COc1cccc(N/N=C(\C#N)C(=O)c2cc(OC)c(OC)c(OC)c2)c1

- IC50 [3]: 2460 nM
- IC50 [1]: 280 nM
- IC50 [2]: 440 nM
- IC50 [5]: 120 nM
- IC50 [6]: 3190 nM
- IC50 [7]: 3260 nM
- IC50 [8]: 220 nM
SMILES: COc1ccc(N/N=C(\C#N)C(=O)c2cc(OC)c(OC)c(OC)c2)cc1
- IC50 [4]: 4620 nM

- IC50 [3]: 720 nM
- inhibition [10]: Dose-dependent effect
- IC50 [11]: 900 nM
- IC50 [1]: 260 nM
- IC50 [2]: 320 nM
- IC50 [5]: 77 nM
- IC50 [6]: 810 nM
- IC50 [7]: 2110 nM
- IC50 [8]: 81 nM
SMILES: COc1ccc(N/N=C(\C#N)C(=O)c2cc(OC)c(OC)c(OC)c2)cc1O
- Activity [9]: 17.01%
- Activity [12]: 5.43%
- Activity [13]: 0.45%
- Activity [14]: 4.09%
- IC50 [4]: 3960 nM
- Activity [15]: 78.89%
- Activity [16]: Dose-dependent effect
- Activity [17]: 94.12%

- IC50 [1]: > 10000 nM
- IC50 [2]: > 10000 nM
SMILES: COc1cc(C(=O)/C(C#N)=N/Nc2ccc([N+](=O)[O-])cc2)cc(OC)c1OC
